Measured values published in ChEMBL document CHEMBL4765294, “Discovery and evaluation of new compounds targeting ribosomal protein S1 in antibiotic-resistant Mycobacterium Tuberculosis” (Eur J Med Chem, 2020).
The source made the active and inactive calls. The calls are words filed in the database; no cut-off is given here.

Legend:
[1] = Binding affinity to Mycobacterium tuberculosis RpsA Ala438 deleted mutant C-terminal domain (285 to 476 residues) assessed as dissociation constant by fluorescence quenching titration based analysis
[2] = tested on: Mycobacterium tuberculosis; assay: Binding affinity to Mycobacterium tuberculosis RpsA Ala438 deleted mutant C-terminal domain (285 to 476 residues) at 500 uM by STD based analysis
[3] = tested on: Mycobacterium tuberculosis; assay: Binding affinity to Mycobacterium tuberculosis RpsA Ala438 deleted mutant C-terminal domain (285 to 476 residues) assessed as quenching rate constant by fluorescence quenching titration based analysis

## CC(Sc1nc(N)cc(N)n1)C(=O)O (centres undefined)
[1]
  Kd: 1.74 µM

## Cc1cccc(CNC(=O)CSc2nc3nc[nH]c3c(=O)[nH]2)c1
[2]
  Activity: Active
[1]
  Kd: 4.67 µM
[3]
  Kq: 2.54 10^12/M/s

## Cc1ccc(CNC(=O)COc2cc(O)c3c(=O)cc(-c4ccccc4)oc3c2)cc1
[2]
  Activity: Active
[1]
  Kd: 1.64 µM
[3]
  Kq: 6.64 10^12/M/s

## Cc1cccc(CNC(=O)COc2cc(O)c3c(=O)cc(-c4ccccc4)oc3c2)c1
[2]
  Activity: Active
[1]
  Kd: 6.91 µM
[3]
  Kq: 2.33 10^12/M/s

## CCOC(=O)CSc1nc2nc[nH]c2c(=O)[nH]1
[2]
  Activity: Active
[1]
  Kd: 0.31 µM
[3]
  Kq: 3.4 10^12/M/s

## O=C(O)CSc1nc2nc[nH]c2c(=O)[nH]1
[2]
  Activity: Active
[1]
  Kd: 5.11 µM
[3]
  Kq: 1.91 10^12/M/s

## Cc1ccc(CNC(=O)CSc2nc3nc[nH]c3c(=O)[nH]2)cc1
[2]
  Activity: Active
[1]
  Kd: 8.5 µM
[3]
  Kq: 3.68 10^12/M/s
